From the NIST ThermoML archive (doi:10.1021/je060150a)
Numbers after ± are expanded uncertainties.

How the values were obtained:
[1] = Liquid; for mass density / viscosity: 101 kPa
[2] = refractive index (Na D-line) (dimensionless); details: 101.33 kPa, Liquid, Standard Abbe refractometry
[3] = xn = mol fraction of the nth substance listed; details: 101 kPa, Liquid

SMILES: CCC(C)=O [butanone]
- mass density ([1]; 283.15 K): 815.9 ± 0.3 kg/m3
- viscosity ([1]; 283.15 K): 0.472 ± 0.007 mPa·s
- mass density ([1]; 293.15 K): 805.5 ± 0.3 kg/m3
- viscosity ([1]; 293.15 K): 0.423 ± 0.006 mPa·s
- mass density ([1]; 303.15 K): 795.1 ± 0.3 kg/m3
- viscosity ([1]; 303.15 K): 0.382 ± 0.006 mPa·s
- vapor or sublimation pressure ([1]; 303.15 K): 15.74 ± 0.4 kPa
- mass density ([1]; 313.15 K): 784.3 ± 0.3 kg/m3
- viscosity ([1]; 313.15 K): 0.347 ± 0.005 mPa·s
- refractive index ([2]; 283.15 K): 1.384 ± 0.00065
- refractive index ([2]; 293.15 K): 1.37888 ± 0.00065
- refractive index ([2]; 303.15 K): 1.37383 ± 0.00065
- refractive index ([2]; 313.15 K): 1.36856 ± 0.00066

SMILES: CCC(C)=O [butanone] + ClC(Cl)Cl
- mass density ([3]; 283.15 K, x2 = 0): 815.9 ± 0.3 kg/m3
- viscosity ([3]; 283.15 K, x2 = 0): 0.472 ± 0.007 mPa·s
- mass density ([3]; 293.15 K, x2 = 0): 805.5 ± 0.3 kg/m3
- viscosity ([3]; 293.15 K, x2 = 0): 0.423 ± 0.006 mPa·s
- mass density ([3]; 303.15 K, x2 = 0): 795.1 ± 0.3 kg/m3
- viscosity ([3]; 303.15 K, x2 = 0): 0.382 ± 0.006 mPa·s
- mass density ([3]; 313.15 K, x2 = 0): 784.3 ± 0.3 kg/m3
- viscosity ([3]; 313.15 K, x2 = 0): 0.347 ± 0.005 mPa·s

SMILES: ClC(Cl)Cl [trichloromethane]
- mass density ([1]; 283.15 K): 1507.3 ± 0.5 kg/m3
- viscosity ([1]; 283.15 K): 0.629 ± 0.008 mPa·s
- mass density ([1]; 293.15 K): 1488.4 ± 0.5 kg/m3
- viscosity ([1]; 293.15 K): 0.573 ± 0.008 mPa·s
- mass density ([1]; 303.15 K): 1469.4 ± 0.5 kg/m3
- viscosity ([1]; 303.15 K): 0.516 ± 0.007 mPa·s
- vapor or sublimation pressure ([1]; 303.15 K): 32.19 ± 0.65 kPa
- mass density ([1]; 313.15 K): 1450 ± 0.5 kg/m3
- viscosity ([1]; 313.15 K): 0.468 ± 0.007 mPa·s
- refractive index ([2]; 283.15 K): 1.45189 ± 0.00072
- refractive index ([2]; 293.15 K): 1.44589 ± 0.00072
- refractive index ([2]; 303.15 K): 1.43987 ± 0.00072
- refractive index ([2]; 313.15 K): 1.43386 ± 0.00072

SMILES: ClC(Cl)Cl [trichloromethane] + CCC(C)=O
- mass density ([3]; 283.15 K, x1 = 0.0906): 872.7 ± 0.3 kg/m3
- viscosity ([3]; 283.15 K, x1 = 0.0906): 0.528 ± 0.007 mPa·s
- mass density ([3]; 283.15 K, x1 = 0.1806): 930.4 ± 0.3 kg/m3
- viscosity ([3]; 283.15 K, x1 = 0.1806): 0.588 ± 0.008 mPa·s
- mass density ([3]; 283.15 K, x1 = 0.272): 990.2 ± 0.3 kg/m3
- viscosity ([3]; 283.15 K, x1 = 0.272): 0.627 ± 0.008 mPa·s
- mass density ([3]; 283.15 K, x1 = 0.3661): 1053.3 ± 0.3 kg/m3
- viscosity ([3]; 283.15 K, x1 = 0.3661): 0.66 ± 0.009 mPa·s
- mass density ([3]; 283.15 K, x1 = 0.4551): 1113.9 ± 0.3 kg/m3
- viscosity ([3]; 283.15 K, x1 = 0.4551): 0.692 ± 0.009 mPa·s
- mass density ([3]; 283.15 K, x1 = 0.549): 1179.5 ± 0.3 kg/m3
- viscosity ([3]; 283.15 K, x1 = 0.549): 0.711 ± 0.009 mPa·s
- mass density ([3]; 283.15 K, x1 = 0.633): 1238.9 ± 0.4 kg/m3
- viscosity ([3]; 283.15 K, x1 = 0.633): 0.712 ± 0.009 mPa·s
- mass density ([3]; 283.15 K, x1 = 0.7035): 1289.3 ± 0.4 kg/m3
- viscosity ([3]; 283.15 K, x1 = 0.7035): 0.717 ± 0.009 mPa·s
- mass density ([3]; 283.15 K, x1 = 0.7973): 1357.5 ± 0.4 kg/m3
- viscosity ([3]; 283.15 K, x1 = 0.7973): 0.701 ± 0.009 mPa·s
- mass density ([3]; 283.15 K, x1 = 0.9068): 1437.7 ± 0.5 kg/m3
- viscosity ([3]; 283.15 K, x1 = 0.9068): 0.674 ± 0.009 mPa·s
- mass density ([3]; 283.15 K, x1 = 1): 1507.3 ± 0.5 kg/m3
- viscosity ([3]; 283.15 K, x1 = 1): 0.629 ± 0.008 mPa·s
- mass density ([3]; 293.15 K, x1 = 0.0906): 861.7 ± 0.3 kg/m3
- viscosity ([3]; 293.15 K, x1 = 0.0906): 0.475 ± 0.007 mPa·s
- mass density ([3]; 293.15 K, x1 = 0.1806): 918.7 ± 0.3 kg/m3
- viscosity ([3]; 293.15 K, x1 = 0.1806): 0.526 ± 0.007 mPa·s
- mass density ([3]; 293.15 K, x1 = 0.272): 977.9 ± 0.3 kg/m3
- viscosity ([3]; 293.15 K, x1 = 0.272): 0.556 ± 0.008 mPa·s
- mass density ([3]; 293.15 K, x1 = 0.3661): 1040.2 ± 0.3 kg/m3
- viscosity ([3]; 293.15 K, x1 = 0.3661): 0.594 ± 0.008 mPa·s
- mass density ([3]; 293.15 K, x1 = 0.4551): 1100.2 ± 0.3 kg/m3
- viscosity ([3]; 293.15 K, x1 = 0.4551): 0.62 ± 0.008 mPa·s
- mass density ([3]; 293.15 K, x1 = 0.549): 1165 ± 0.3 kg/m3
- viscosity ([3]; 293.15 K, x1 = 0.549): 0.633 ± 0.008 mPa·s
- mass density ([3]; 293.15 K, x1 = 0.633): 1223.7 ± 0.4 kg/m3
- viscosity ([3]; 293.15 K, x1 = 0.633): 0.636 ± 0.008 mPa·s
- mass density ([3]; 293.15 K, x1 = 0.7035): 1273.6 ± 0.4 kg/m3
- viscosity ([3]; 293.15 K, x1 = 0.7035): 0.631 ± 0.008 mPa·s
- mass density ([3]; 293.15 K, x1 = 0.7973): 1340.7 ± 0.4 kg/m3
- viscosity ([3]; 293.15 K, x1 = 0.7973): 0.63 ± 0.008 mPa·s
- mass density ([3]; 293.15 K, x1 = 0.9068): 1419.8 ± 0.5 kg/m3
- viscosity ([3]; 293.15 K, x1 = 0.9068): 0.61 ± 0.008 mPa·s
- mass density ([3]; 293.15 K, x1 = 1): 1488.4 ± 0.5 kg/m3
- viscosity ([3]; 293.15 K, x1 = 1): 0.573 ± 0.008 mPa·s
- mass density ([3]; 303.15 K, x1 = 0.0906): 850.7 ± 0.3 kg/m3
- viscosity ([3]; 303.15 K, x1 = 0.0906): 0.419 ± 0.006 mPa·s
- mass density ([3]; 303.15 K, x1 = 0.1806): 907.1 ± 0.3 kg/m3
- viscosity ([3]; 303.15 K, x1 = 0.1806): 0.468 ± 0.007 mPa·s
- mass density ([3]; 303.15 K, x1 = 0.272): 965.6 ± 0.3 kg/m3
- viscosity ([3]; 303.15 K, x1 = 0.272): 0.499 ± 0.007 mPa·s
- mass density ([3]; 303.15 K, x1 = 0.3661): 1027.2 ± 0.3 kg/m3
- viscosity ([3]; 303.15 K, x1 = 0.3661): 0.53 ± 0.007 mPa·s
- mass density ([3]; 303.15 K, x1 = 0.4551): 1086.4 ± 0.3 kg/m3
- viscosity ([3]; 303.15 K, x1 = 0.4551): 0.553 ± 0.008 mPa·s
- mass density ([3]; 303.15 K, x1 = 0.549): 1150.5 ± 0.3 kg/m3
- viscosity ([3]; 303.15 K, x1 = 0.549): 0.565 ± 0.008 mPa·s
- mass density ([3]; 303.15 K, x1 = 0.633): 1208.5 ± 0.3 kg/m3
- viscosity ([3]; 303.15 K, x1 = 0.633): 0.571 ± 0.008 mPa·s
- mass density ([3]; 303.15 K, x1 = 0.7035): 1257.7 ± 0.4 kg/m3
- viscosity ([3]; 303.15 K, x1 = 0.7035): 0.566 ± 0.008 mPa·s
- mass density ([3]; 303.15 K, x1 = 0.7973): 1323.9 ± 0.4 kg/m3
- viscosity ([3]; 303.15 K, x1 = 0.7973): 0.566 ± 0.008 mPa·s
- mass density ([3]; 303.15 K, x1 = 0.9068): 1401.8 ± 0.5 kg/m3
- viscosity ([3]; 303.15 K, x1 = 0.9068): 0.546 ± 0.007 mPa·s
- mass density ([3]; 303.15 K, x1 = 1): 1469.4 ± 0.5 kg/m3
- viscosity ([3]; 303.15 K, x1 = 1): 0.516 ± 0.007 mPa·s
- mass density ([3]; 313.15 K, x1 = 0.0906): 839.3 ± 0.3 kg/m3
- viscosity ([3]; 313.15 K, x1 = 0.0906): 0.385 ± 0.006 mPa·s
- mass density ([3]; 313.15 K, x1 = 0.1806): 895.1 ± 0.3 kg/m3
- viscosity ([3]; 313.15 K, x1 = 0.1806): 0.42 ± 0.006 mPa·s
- mass density ([3]; 313.15 K, x1 = 0.272): 952.9 ± 0.3 kg/m3
- viscosity ([3]; 313.15 K, x1 = 0.272): 0.451 ± 0.006 mPa·s
- mass density ([3]; 313.15 K, x1 = 0.3661): 1013.7 ± 0.3 kg/m3
- viscosity ([3]; 313.15 K, x1 = 0.3661): 0.477 ± 0.007 mPa·s
- mass density ([3]; 313.15 K, x1 = 0.4551): 1072.3 ± 0.3 kg/m3
- viscosity ([3]; 313.15 K, x1 = 0.4551): 0.498 ± 0.007 mPa·s
- mass density ([3]; 313.15 K, x1 = 0.549): 1135.5 ± 0.3 kg/m3
- viscosity ([3]; 313.15 K, x1 = 0.549): 0.51 ± 0.007 mPa·s
- mass density ([3]; 313.15 K, x1 = 0.633): 1192.7 ± 0.3 kg/m3
- viscosity ([3]; 313.15 K, x1 = 0.633): 0.515 ± 0.007 mPa·s
- mass density ([3]; 313.15 K, x1 = 0.7035): 1241.3 ± 0.4 kg/m3
- viscosity ([3]; 313.15 K, x1 = 0.7035): 0.513 ± 0.007 mPa·s
- mass density ([3]; 313.15 K, x1 = 0.7973): 1306.6 ± 0.4 kg/m3
- viscosity ([3]; 313.15 K, x1 = 0.7973): 0.51 ± 0.007 mPa·s
- mass density ([3]; 313.15 K, x1 = 0.9068): 1383.4 ± 0.4 kg/m3
- viscosity ([3]; 313.15 K, x1 = 0.9068): 0.491 ± 0.007 mPa·s
- mass density ([3]; 313.15 K, x1 = 1): 1450 ± 0.5 kg/m3
- viscosity ([3]; 313.15 K, x1 = 1): 0.468 ± 0.007 mPa·s
